Test results as given in PubChem BioAssay AID816 (SRMLSC, 2007).
Calls of active or inactive are those of the source. The rule behind the calls is not given here.

test system: S. cerevisiae GAL1 promoter reporter activation counterscreen; assay: GAL1 promoter activators in yeast, artefact control for yeast lifespan extension project, S. cerevisiae (AID 816);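 note: yeast growth read after 24 h of incubation with compounds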

SMILES	EC50
Cc1cc(NS(=O)(=O)c2ccc(CC(C)C)cc2)no1	> 40 µM (inactive)
CC1=CS(=O)(=O)CC1Sc1nc2ccccc2[nH]1 (centres undefined)	> 40 µM (inactive)
O=C1NCC2=C1C(c1ccc(Br)cc1)Nc1ccccc1N2 (centres undefined)	> 40 µM (inactive)
O=C1CC(c2ccccc2)CC(O)=C1C=NCCN1CCNCC1 (centres undefined)	> 40 µM (inactive)
CCOc1ccc(NCc2nc3ccccc3n2CCOc2ccccc2)cc1	> 40 µM (inactive)
COc1ccc(/C=N/NC(=O)c2csc(-n3nc(C)cc3C(F)(F)F)n2)cc1	> 40 µM (inactive)
COC(=O)CC1=NN(c2ccccc2)C(=O)/C1=C\c1ccc(OC)cc1	> 40 µM (inactive)
O=C(COc1ccc2ccccc2c1)Nc1cccc(C(=O)Nc2ccccc2C(=O)O)c1	> 40 µM (inactive)
N#Cc1cc(C(=O)c2cc(F)ccc2O)cn(-c2nccs2)c1=O	> 40 µM (inactive)
Cc1ccc(-c2ccc(/C=C3\C(=O)ON=C3c3ccccc3)o2)c([N+](=O)[O-])c1	> 40 µM (inactive)
O=C(Nc1ccc(S(=O)(=O)N2CCc3ccccc3C2)cc1)c1ccccc1	> 40 µM (inactive)
COC(=O)C1=C(C(=O)OC)C(c2cc(Br)ccc2O)c2sc(=O)[nH]c2S1 (centres undefined)	> 40 µM (inactive)
Cc1[nH]n(-c2ccccc2)c(=O)c1N=Nc1nccs1	> 40 µM (inactive)
c1cncc(-c2nn[nH]n2)c1	> 40 µM (inactive)
O=C(N/N=C/c1cccc(F)c1)c1c(O)c2ccccc2[nH]c1=O	> 40 µM (inactive)
CC(C)Cc1nn2c(=O)cc(O)nc2s1	> 40 µM (inactive)
COc1ccccc1CNC(=O)C(CCSC)NS(=O)(=O)c1ccc2c(c1)oc(=O)n2C (centres undefined)	> 40 µM (inactive)
CS(=O)(=O)c1nc(-c2ccco2)cc(C(F)(F)F)n1	> 40 µM (inactive)
CS(=O)(=O)c1nc(-c2ccccc2)cc(C(F)(F)F)n1	> 40 µM (inactive)
CCCCOC(=O)CSc1nc2c(c(=O)[nH]c(=O)n2C)n1C/C=C(\C)Cl	> 40 µM (inactive)
CC1(C)Oc2ccccc2OC1(O)c1ccc2ccccc2n1 (centres undefined)	> 40 µM (inactive)
Cc1ccc(-c2nc3ccc(Cl)cc3n2OC(=O)N(C)C)cc1	> 40 µM (inactive)
O=C(/C=C(\O)c1ccc(Cl)cc1)C(=O)NNC(=O)C(O)(c1ccccc1)c1ccccc1	> 40 µM (inactive)
O=C(Nc1nccs1)c1ccc2c(=O)n3c(nc2c1)CCCCC3	> 40 µM (inactive)
CN(c1ccccc1)c1nc2ccsc2c(=O)s1	> 40 µM (inactive)

SMILES	EC50
CCOc1ccc(C(=O)C(CN2CCOCC2)c2ccccc2)cc1 (centres undefined)	> 40 µM (inactive)
CCOC(=O)CS(=O)(=O)c1nc(-c2ccc(F)cc2)cc(C(F)(F)F)n1	> 40 µM (inactive)
O=C1C(=C(O)c2ccccc2)C(=O)c2ccccc21	> 40 µM (inactive)
O=C(NC(=S)NNS(=O)(=O)c1ccccc1)c1ccc([N+](=O)[O-])cc1	> 40 µM (inactive)
O=S(=O)(Nc1nc2ccccc2nc1Cl)c1ccc2ccccc2c1	> 40 µM (inactive)
ClC(Cl)(c1nnnn1-c1ccccc1)c1nnnn1-c1ccccc1	> 40 µM (inactive)
O=c1cc(-c2c(F)c(F)c(F)c(F)c2F)oc2c(F)c(F)c(F)c(F)c12	> 40 µM (inactive)
COC(=O)c1cc(OC)c(OC)cc1NC(=S)Nc1cccc(C(C)=O)c1	> 40 µM (inactive)
CC(=O)N1CCN(CCN=CC2=C(O)CC(c3cccs3)CC2=O)CC1 (centres undefined)	> 40 µM (inactive)
COc1cccc(/C=C/C(=O)c2c(O)cc(C)oc2=O)c1O	> 40 µM (inactive)
CCn1c(=O)c2ccccc2n2c(SCC(=O)N3CCCc4ccccc43)nnc12	> 40 µM (inactive)
CCCCCCN1CC(C(=O)OCC)C(=O)C1=O (centres undefined)	> 40 µM (inactive)
Cc1ccccc1NC(=O)c1ccccc1	> 40 µM (inactive)
O=c1c2ccccc2nc(-c2cccc(Cl)c2)n1O	> 40 µM (inactive)
COc1ccc(NC(=O)/C(Cl)=C(/Cl)S(=O)Cc2ccc(C)cc2)cn1 (centres undefined)	> 40 µM (inactive)
COc1ccc(OC)c(NC(=S)N2CCN(C/C=C/c3ccccc3)CC2)c1	> 40 µM (inactive)
O=C(Nc1nc2ccccc2n1CCN1CCOCC1)c1cn(-c2ccccc2)nc1-c1ccccc1	> 40 µM (inactive)
COc1ccc(N(C)C(=S)Nc2ccc3nc(C)c(C)nc3c2)cc1	> 40 µM (inactive)
COc1ccccc1N(CN1CCCC1=O)C(=O)c1c(F)cccc1F	> 40 µM (inactive)
CSC1=NSC2=NC(=O)/C(=C\c3cccs3)C(=N)N12	> 40 µM (inactive)
CN(C)/C=C(/C(=O)c1ccc(Cl)cc1Cl)S(=O)(=O)c1ccccc1	> 40 µM (inactive)
CCOC(=O)c1c(NC(=O)C2C3C=CC(C3)C2C(=O)O)sc2c1CCC(CC)C2 (centres undefined)	> 40 µM (inactive)
Cc1ncc(C23CC4CC(CC(C4)C2)C3)[nH]1	> 40 µM (inactive)
Cc1cc(C)n2cc(CSc3nnc(N)s3)nc2n1	> 40 µM (inactive)
O=C(c1c[nH]c(C(=O)C(Cl)(Cl)Cl)c1)c1ccccc1Cl	> 40 µM (inactive)

SMILES	EC50
CCN1CCCC1CNC(=O)COc1cc(=O)n(C)c2ccccc12 (centres undefined)	> 40 µM (inactive)
CC1C/C(=C\c2cccnc2)C(=O)/C(=C/c2cccnc2)C1 (centres undefined)	> 40 µM (inactive)
CC(=O)Oc1ccccc1N1C(=O)c2ccc(C(=O)O)cc2C1=O	> 40 µM (inactive)
C/C(=N\NC(=O)c1cccnc1)c1c(O)cc(C)oc1=O	> 40 µM (inactive)
O=C(/C(=C/c1ccccc1)n1cncn1)c1ccc(Cl)cc1Cl	> 40 µM (inactive)
Cc1c(NC(=O)C(=O)/C=C(\O)c2ccc(Cl)cc2)c(=O)n(-c2ccccc2)n1C	> 40 µM (inactive)
CCn1cc(C(=O)O)c(=O)c2ccc(C)nc21	> 40 µM (inactive)
COC(=O)C1=C(N)OC2=C(C(=O)CC(C)(C)C2)C1c1cccs1 (centres undefined)	> 40 µM (inactive)
O=C(Nc1cccc(Cl)c1)c1ccc2c(=O)n3c(nc2c1)CCCCC3	> 40 µM (inactive)
Cc1ccccc1Oc1cc(-n2ncc(Cl)c(Cl)c2=O)ncn1	> 40 µM (inactive)
CCOC(=O)c1c(C)oc2c1c(C(c1cccnc1)N1CCCCC1)c(O)c1ccccc12 (centres undefined)	> 40 µM (inactive)
CCCN1C(=O)/C(=C/c2ccncc2)SC1=S	> 40 µM (inactive)
CCc1nnc(NC(=O)c2cccc(S(=O)(=O)N(C)c3ccccc3)c2)s1	> 40 µM (inactive)
CCCC(=O)Nc1ccccc1Sc1ncnc2scc(-c3ccccc3)c12	> 40 µM (inactive)
CC(C)C(c1nnnn1Cc1ccccc1)N1CCN(Cc2ccc3c(c2)OCO3)CC1 (centres undefined)	> 40 µM (inactive)
O=C(Nc1cccnc1)c1c(O)c2cccc3c2n(c1=O)CC3	> 40 µM (inactive)
c1ccc(-c2c(-c3ccccc3)n(Cc3ccco3)c3ncnc(NCCCn4ccnc4)c23)cc1	> 40 µM (inactive)
COc1ccc(/C=C(/C(=O)c2ccc(Cl)cc2Cl)n2cncn2)cc1	> 40 µM (inactive)
COc1ccc(/C(O)=C/C(=O)C(=O)Nc2c(C)n(C)n(-c3ccccc3)c2=O)cc1	> 40 µM (inactive)
CCN(CCO)C(=O)C12CCC(C)(C(=O)C1)C2(C)C (centres undefined)	> 40 µM (inactive)
O=c1cc(O)c2c(=O)n(-c3ccccc3)c3c(c2o1)CCCCC3	> 40 µM (inactive)
C=C1C(=O)C=C2CN(C(=O)c3ccccc3)[C@@](Cc3ccc(F)cc3)(C(=O)OC)[C@@H]12	> 40 µM (inactive)
Cc1cc(C)c(S(=O)(=O)c2ccccc2)c(OC(=O)c2ccc(Cl)cc2Cl)n1	> 40 µM (inactive)
O=C(O)CCCCCN1C(=O)/C(=C\c2ccncc2)SC1=S	> 40 µM (inactive)
O=c1cc(-c2ccccc2Cl)oc2ccc([N+](=O)[O-])c(O)c12	> 40 µM (inactive)

SMILES	EC50
O=C(O)c1cccc2c1C(=O)N(C1CCCCC1)C2	> 40 µM (inactive)
CCC(C)OC(=O)C1C(c2ccccc2)C(C(=O)O)C1c1ccccc1 (centres undefined)	> 40 µM (inactive)
O=C1C(Cl)=C(Nc2ccccc2O)C(=O)N1CCc1ccccc1	> 40 µM (inactive)
CCCc1[nH]nc2c1C(c1ccc(Br)s1)C(C#N)=C(N)O2 (centres undefined)	> 40 µM (inactive)
CCCCSc1nc(O)c(C2OC(=O)c3c2ccc(OC)c3OC)c(=O)n1C (centres undefined)	> 40 µM (inactive)
COc1ccc(C2CC23N=C(c2ccccc2)OC3=O)cc1 (centres undefined)	> 40 µM (inactive)
CC(C)CN=C(NS(=O)(=O)c1ccccc1)C(Cl)(Cl)Cl	> 40 µM (inactive)
O=c1cc(O)c2c(=O)n(-c3ccccc3)c3c(c2o1)CCCCCC3	> 40 µM (inactive)
COc1ccc(C(CNC(=O)c2cccc(Br)c2)N2CCCC2)cc1 (centres undefined)	> 40 µM (inactive)
C=CCN(CC=C)c1nc2ccccc2nc1C(C#N)C(=O)OC(C)C (centres undefined)	> 40 µM (inactive)
O=C(O)c1ccc(O)c(N2C(=O)Nc3ccccc3N2O)c1	> 40 µM (inactive)
CCCNC(=O)CCC(NS(=O)(=O)c1ccc(C)cc1)C(=O)NCCC (centres undefined)	> 40 µM (inactive)
Cc1ccc(S(=O)(=O)C(C#N)c2nc3ccccc3nc2N2CCCC2)cc1 (centres undefined)	> 40 µM (inactive)
CC1CCc2cc(F)cc3c(O)c(C(=O)NCc4ccco4)c(=O)n1c23 (centres undefined)	> 40 µM (inactive)
CCCn1c(C)cc(C(=O)COc2ncnc3sccc23)c1C	> 40 µM (inactive)
O=C1Nc2cc(Cl)c(Cl)cc2N(O)N1c1cc(Cl)cc(Cl)c1	> 40 µM (inactive)
O=S(=O)(CCSc1ccccn1)c1nc2ccccc2s1	> 40 µM (inactive)
O=C(CS(=O)c1ccc(C(F)(F)F)cc1[N+](=O)[O-])Oc1ccccc1 (centres undefined)	> 40 µM (inactive)
COc1ccccc1C(=O)Oc1ccc2c(c1)O/C(=C\c1ccncc1)C2=O	> 40 µM (inactive)
COc1cc(/C=C/C(=O)C2C(=O)C=C(C)OC2=O)cc(OC)c1O (centres undefined)	> 40 µM (inactive)
Cc1ccc(N/C(C(Cl)=C(Cl)Cl)=C(/Cl)[N+](=O)[O-])c(C)c1	> 40 µM (inactive)
CC1CC(C)CN(S(=O)(=O)c2cccc(C(=O)N3C(=O)c4cccc(N)c4C3=O)c2)C1 (centres undefined)	> 40 µM (inactive)
CCC(=O)N1CCN(CCN=CC2=C(O)CC(c3cccs3)CC2=O)CC1 (centres undefined)	> 40 µM (inactive)
CCN1C(=O)/C(=C/N(C(C)=O)c2ccccc2)N(c2ccccc2)C1=S	> 40 µM (inactive)
